Read-outs that look alike come from different tables or passages of the source.

This assay relates to test plant species. Kind of assay: Post-emergent herbicidal activity test (greenhouse, foliar spray, visual growth reduction). The class given is in vivo. Conditions: post-emergence, 336 h, 140 g ai/ha. A digest of the protocol:
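Seedlings were raised 7-21 d in a greenhouse under a 15 h photoperiod until the first or second true leaf. Each compound, dissolved in acetone:DMSO 97:3 and diluted into a surfactant-containing spray mixture, was then applied at 187 L/ha. Plants were subirrigated, and growth reduction was scored visually at 14 d.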

The mark [1] stands for this setting: ECHCG: barnyardgrass (Echinochloa crus-galli), 14 days after application, read-out: Visual Growth Reduction (%) 14 Days After Application, ECHCG.
Where [2] appears, read: IPOHE: ivy-leaf morning glory (Ipomoea hederacea), 14 days after application, read-out: Visual Growth Reduction (%) 14 Days After Application, IPOHE.
Where [3] appears, read: KCHSC: kochia (Bassia scoparia), 14 days after application, read-out: Visual Growth Reduction (%) 14 Days After Application, KCHSC.
[4] abbreviates: ORYSA: rice (Oryza sativa), 14 days after application, read-out: Visual Growth Reduction (%) 14 Days After Application, ORYSA.
Where [5] appears, read: SETFA: giant foxtail (Setaria faberi), 14 days after application, read-out: Visual Growth Reduction (%) 14 Days After Application, SETFA.
Where [6] appears, read: SORVU: grain sorghum (Sorghum vulgare), 14 days after application, read-out: Visual Growth Reduction (%) 14 Days After Application, SORVU.
The mark [7] stands for this setting: STEME: common chickweed (Stellaria media), 14 days after application, read-out: Visual Growth Reduction (%) 14 Days After Application, STEME.
Setting [8] is: TRZAS: wheat, spring (Triticum aestivum), 14 days after application, read-out: Visual Growth Reduction (%) 14 Days After Application, TRZAS.
Setting [9] is: blackgrass (Alopecurus myosuroides), 14 Days After Application, read-out: Visual Growth Reduction (%) ALOMY.
[10] abbreviates: canada thistle (Cirsium arvense), 14 Days After Application, read-out: Visual Growth Reduction (%) CIRAR.
Where [11] appears, read: crabgrass (Digitaria sanguinalis), 14 Days After Application, read-out: Visual Growth Reduction (%) DIGSA.
Where [12] appears, read: lambsquarters (Chenopodium album), 14 Days After Application, read-out: Visual Growth Reduction (%) CHEAL.
Where [13] appears, read: redroot pigweed (Amaranthus retroflexus), 14 Days After Application, read-out: Visual Growth Reduction (%) AMARE.
The mark [14] stands for this setting: wild oat (Avena fatua), 14 Days After Application, read-out: Visual Growth Reduction (%) AVEFA.
[15] abbreviates: yellow nutsedge (Cyperus esculentus), 14 Days After Application, read-out: Visual Growth Reduction (%) CYPES.

In the case of `COC(=O)c1nc(-c2ccc(F)c3c2OC(F)(F)O3)c(F)cc1Cl` [F234, Methyl 3-chloro-5-fluoro-6-(2,2,7-trifluorobenzo[d][1,3]dioxol-4-yl)picolinate], the pest or weed control at 140 g/ha reads like this: under setting [1], 0 to 29%; under setting [2], 60 to 74%; under setting [3], 0 to 29%; under setting [4], 0 to 29%; under setting [5], 0 to 29%; under setting [6], 0 to 29%. Further, the pest or weed control at 140 g/ha runs as follows: under setting [7], 0 to 29%; under setting [8], 0 to 29%; under setting [9], 0 to 29%; under setting [10], 0 to 29%; under setting [11], 30 to 44%; under setting [12], 30 to 44%. The pest or weed control at 140 g/ha reads like this: under setting [13], 0 to 29%; under setting [14], 0 to 29%; under setting [15], 0 to 29%.
For `COC(=O)c1nc(-c2ccc3c(c2OC)OC(F)(F)O3)c(F)cc1Cl` [F235, Methyl 3-chloro-6-(2,2-difluoro-4-methoxybenzo[d][1,3]dioxol-5-yl)-5-fluoropicolinate], the pest or weed control at 140 g/ha runs as follows: under setting [1], 95 to 100%; under setting [2], 95 to 100%; under setting [3], 95 to 100%; under setting [4], 45 to 59%; under setting [5], 95 to 100%; under setting [6], 95 to 100%. The pest or weed control at 140 g/ha runs as follows: under setting [7], 85 to 94%; under setting [8], 95 to 100%; under setting [9], 60 to 74%; under setting [10], 95 to 100%; under setting [11], 95 to 100%; under setting [12], 95 to 100%. Further, the pest or weed control at 140 g/ha lay in the range of 95 to 100% under setting [13], 95 to 100% under setting [14] and 0 to 29% under setting [15].
As to `COC(=O)c1nc(-c2ccc(C3(C#N)CC3)cc2Cl)ccc1Cl` [F236, Methyl 3-chloro-6-(2-chloro-4-(1-cyanocyclopropyl)phenyl)picolinate], the pest or weed control at 140 g/ha reads like this: under setting [1], 0 to 29%; under setting [2], 95 to 100%; under setting [3], 75 to 84%; under setting [4], 0 to 29%; under setting [5], 75 to 84%; under setting [6], 75 to 84%. The pest or weed control at 140 g/ha lay in the range of 45 to 59% under setting [7]; 0 to 29% under setting [8]; 0 to 29% under setting [9]; 85 to 94% under setting [10]; 75 to 84% under setting [11]; 85 to 94% under setting [12]. Moreover, the pest or weed control at 140 g/ha was 30 to 44% under setting [13], 0 to 29% under setting [14] and 0 to 29% under setting [15].
In the case of `COC(=O)c1nc(-c2ccc(C3(C#N)CC3)cc2Cl)c(F)cc1Cl` [F237, Methyl 3-chloro-6-(2-chloro-4-(1-cyanocyclopropyl)phenyl)-5-fluoropicolinate], the pest or weed control at 140 g/ha under setting [1] lay in the range of 30 to 44%; the pest or weed control at 140 g/ha under setting [2] lay in the range of 95 to 100%; the pest or weed control at 140 g/ha under setting [3] lay within 85 to 94%; the pest or weed control at 140 g/ha under setting [4] was 0 to 29%; the pest or weed control at 140 g/ha under setting [5] fell in the range of 75 to 84%; the pest or weed control at 140 g/ha under setting [6] fell in the range of 85 to 94%. Further, the pest or weed control at 140 g/ha under setting [7] was 30 to 44%; the pest or weed control at 140 g/ha under setting [8] was in the range of 45 to 59%; the pest or weed control at 140 g/ha under setting [9] was 0 to 29%; the pest or weed control at 140 g/ha under setting [10] was in the range of 95 to 100%; the pest or weed control at 140 g/ha under setting [11] was in the range of 85 to 94%; the pest or weed control at 140 g/ha under setting [12] was in the range of 85 to 94%. Also, the pest or weed control at 140 g/ha fell in the range of 95 to 100% under setting [13], 45 to 59% under setting [14] and 45 to 59% under setting [15].
With `COC(=O)c1nc(-c2ccc(C3(C#N)CC3)cc2Cl)c(Cl)cc1Cl` [F238, Methyl 3,5-dichloro-6-(2-chloro-4-(1-cyanocyclopropyl)phenyl)picolinate], the pest or weed control at 140 g/ha lay in the range of 0 to 29% under setting [1]; 75 to 84% under setting [2]; 0 to 29% under setting [3]; 0 to 29% under setting [4]; 45 to 59% under setting [5]; 60 to 74% under setting [6]. The pest or weed control at 140 g/ha reads like this: under setting [7], 0 to 29%; under setting [8], 0 to 29%; under setting [9], 0 to 29%; under setting [10], 60 to 74%; under setting [11], 60 to 74%; under setting [12], 95 to 100%. For the same molecule, the pest or weed control at 140 g/ha fell in the range of 45 to 59% under setting [13], 0 to 29% under setting [14] and 0 to 29% under setting [15].
With `C#Cc1cc(C(F)(F)F)cc(Cl)c1-c1ccc(Cl)c(C(=O)OC)n1` [F239, methyl 3-chloro-6-(2-chloro-6-ethynyl-4-(trifluoromethyl)phenyl)picolinate], the pest or weed control at 140 g/ha under setting [1] lay within 0 to 29%; the pest or weed control at 140 g/ha under setting [2] was in the range of 75 to 84%; the pest or weed control at 140 g/ha under setting [3] lay in the range of 0 to 29%; the pest or weed control at 140 g/ha under setting [4] was in the range of 0 to 29%; the pest or weed control at 140 g/ha under setting [5] was in the range of 0 to 29%; the pest or weed control at 140 g/ha under setting [6] fell in the range of 60 to 74%. In addition, the pest or weed control at 140 g/ha lay within 0 to 29% under setting [7]; 0 to 29% under setting [8]; 0 to 29% under setting [9]; 0 to 29% under setting [10]; 0 to 29% under setting [11]; 30 to 44% under setting [12]. Moreover, the pest or weed control at 140 g/ha by setting is: under setting [13], 0 to 29%; under setting [14], 0 to 29%; under setting [15], 0 to 29%.
Consider `COC(=O)c1nc(-c2cc(F)c3c(c2)OC(F)(F)O3)c(F)cc1Cl` [F240, Methyl 3-chloro-5-fluoro-6-(2,2,7-trifluorobenzo[d][1,3]dioxol-5-yl)picolinate], for which the pest or weed control at 140 g/ha was 0 to 29% under setting [1]; 95 to 100% under setting [2]; 0 to 29% under setting [3]; 0 to 29% under setting [4]; 0 to 29% under setting [5]; 75 to 84% under setting [6]. Besides, the pest or weed control at 140 g/ha was in the range of 0 to 29% under setting [7]; 0 to 29% under setting [8]; 0 to 29% under setting [9]; 0 to 29% under setting [10]; 95 to 100% under setting [11]; 60 to 74% under setting [12]. Besides, the pest or weed control at 140 g/ha was 30 to 44% under setting [13], 0 to 29% under setting [14] and 0 to 29% under setting [15].
As to `COC(=O)c1nc(-c2cc(F)c(C(F)(F)F)cc2Cl)c(F)cc1Cl` [F241, Methyl 3-chloro-6-(2-chloro-5-fluoro-4-(trifluoromethyl)phenyl)-5-fluoropicolinate], the pest or weed control at 140 g/ha fell in the range of 60 to 74% under setting [1]; 95 to 100% under setting [2]; 95 to 100% under setting [3]; 0 to 29% under setting [4]; 95 to 100% under setting [5]; 95 to 100% under setting [6]. In addition, the pest or weed control at 140 g/ha runs as follows: under setting [7], 0 to 29%; under setting [8], 75 to 84%; under setting [9], 60 to 74%; under setting [10], 95 to 100%; under setting [11], 95 to 100%; under setting [12], 95 to 100%. For the same molecule, the pest or weed control at 140 g/ha runs as follows: under setting [13], 95 to 100%; under setting [14], 85 to 94%; under setting [15], 60 to 74%.

(Values after patent US20230017045A1, “PYRIDINE AND PYRIMIDINE CARBOXYLATE HERBICIDES AND METHODS OF USE THEREOF” (Dow AgroSciences LLC, priority 2017, published 2023).)
